These results are taken from PubChem BioAssay AID179 (DTP/NCI, 2004).

The subject of the assay is CEM cells HIV-1 protection, formazan growth assay. Description: NCI AIDS Antiviral Assay. The settings on record: for IC50: measured here: growth of uninfected CEM cells. In outline:
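Steps: treat uninfected and HIV-1-infected human CEM cells at five drug levels; quantify growth by soluble formazan; retest any compound reaching 50% protection; classify actives from the retest.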

Where “and” joins values, the source holds several entries; their conditions need not be identical. Identical values can stand only once. Calls of active or inactive are those of the source.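 The calls were made as follows: active = compounds giving half or more protection of infected cells from virus-caused growth loss, again on retest; inactive = the rest.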

One may read the EC50 as the midpoint of the concentration-response curve. As usually defined, the IC50 is the concentration needed to halve the response being measured. A low value points to higher potency. `C=C1C(=O)O[C@H](c2ccoc2)C[C@@H]1[C@@]1(C)CCCC2(C)C(=O)OCC21` (stereo not given in full): the EC50 is above 145 µM and the IC50 stood at 95.5 µM. For the compound `CCOC(=O)/C(=C\c1ccc([N+](=O)[O-])cc1)[Se]c1ccccc1`, the EC50 was above 69.2 µM and the IC50 was determined as 26.9 µM. As for `CNc1ncc(-c2nnnn2-c2ccccc2)c(CN(C)C)n1`, the EC50 is above 200 µM and the IC50 was above 200 µM.

In the case of `CC(C)CCN=c1cc2n(-c3ccc(Cl)cc3)c3ccccc3nc-2cc1Nc1ccc(Cl)cc1`, the outcome was inactive. On to `Cc1ccc(S(=O)(=O)n2ccc(-c3ccc4ccn(S(=O)(=O)c5ccc(C)cc5)c4c3)c2)cc1`, for which the EC50 is above 200 µM and the IC50 is 87.1 µM. Regarding `CCOC(=O)c1ccc(CS(=O)c2ccc(OC)cc2)c([N+](=O)[O-])c1` (stereo not given), the EC50 was above 100 µM and the IC50 worked out at 12.3 µM. Turning to `FC(F)(Oc1ccc2oc3ccccc3c2c1)c1nc2ccccc2o1`, the EC50 was above 200 µM and the 50% inhibitory concentration (IC50) amounted to 33.9 µM.

Consider `C/C(CCn1[nH]c(=O)ccc1=O)=N\NC(=O)C(N)=O`, for which the EC50 is above 676 µM and the IC50 is above 676 µM. For the compound `N#Cc1c(-c2ccccc2)c(C#N)c(=O)n(C2OC(CO)C(O)C(O)C2O)c1S` (stereo not given), the EC50 was above 200 µM; the 50% inhibitory concentration (IC50) was > 200 µM and 141 µM. Turning to `NC1=C(O)c2ccccc2C(=O)C1=O`, the result was inactive. Take `S=c1[nH][nH]c(=S)s1`: the EC50 is 288 µM and the IC50 is 501 µM. As for `O=C1OC(C(O)CO)C(C(O)CO)OC1=O` (stereo not given), the EC50 was above 200 µM and the IC50 is above 200 µM.

Take `CC(C)(C)N=C(N)NC#N`: the EC50 is above 200 µM and the IC50 was above 200 µM. With `O=CC1=CCC2c3[nH]c4ccccc4c3CCN2C1` (stereo not given), the EC50 is above 372 µM and the IC50 is 41.7 µM. With `CCCCCCNC(=O)/C(=C/c1ccc(OC)cc1)NC(=O)c1ccccc1`, the EC50 was above 200 µM and the IC50 came to 102 µM.

Turning to `C=CCOCCC(CC=C)C(=O)CC(=O)OC` (stereo not given), the EC50 is above 251 µM and the concentration for half-maximal inhibition (IC50) amounted to 195 µM. `CC(=O)C(C(=O)C(=O)Nc1cc(Cl)c(Cl)cc1Cl)c1csc(N)n1` (stereo not given): the EC50 was above 229 µM and the IC50 was above 229 µM. On to `O=C1c2ccccc2C(=O)C1(c1ccccn1)[N+](=O)[O-]`, for which the EC50 is above 200 µM and the IC50 came out at 72.4 µM. As for `CC(C)(Oc1ccc(C(=O)c2ccc(Cl)cc2)cc1Cl)C(=O)N1CCN(CCO)CC1`, the EC50 was above 200 µM and the IC50 worked out at 4.47 µM. Regarding `CC1CC(=O)c2ccccc2O1` (stereo not given), the EC50 is above 200 µM and the IC50 was above 200 µM. As to `CCCCCCC1=C(O)C(=O)C(CCCCCC)=C(O)C1=O`, the EC50 is above 69.2 µM and the half-maximal inhibitory concentration (IC50) is 11.7 µM.

Consider `CC1=N/C(=C\c2ccc(F)cc2)C(=O)O1`, for which the EC50 is above 25.1 µM and the 50% inhibitory concentration (IC50) is above 25.1 µM.

`N#C/C(=C\c1cc(Cl)cc(Cl)c1O)c1nc2ccccc2[nH]1`: the EC50 was above 200 µM and the IC50 is 30.9 µM. As for `CSC(SC)=C1C(=O)NN=C1C`, the EC50 is above 200 µM and the IC50 is above 200 µM. As for `CCc1cc(-c2ccc(OC)cc2)c(C#N)c(=S)n1C1OC(COC(C)=O)C(OC(C)=O)C(OC(C)=O)C1OC(C)=O` (stereo not given), the EC50 is above 200 µM; the IC50 was 14.5 µM and 12.3 µM. Take `Cc1cc(O)c2c(c1)C(=O)C=CC2=O`: the result was inactive.

For `COC(=O)N/N=C(\c1nc2ccc(Cl)cc2[nH]c1=O)C(O)c1ccc([N+](=O)[O-])cc1` (stereo not given), the EC50 was above 575 µM and the IC50 was determined as 550 µM. Regarding `O=C1CN(c2ccc(Cl)cc2)C(=O)CN1NCNN1CC(=O)N(c2ccc(Cl)cc2)CC1=O`, the EC50 is above 200 µM and the IC50 was above 200 µM. `COc1ccc(C2(CN(C)C)COc3cc(OC)c(OC)cc3C2=O)cc1OC` (stereo not given): the result was inactive. As to `CCC(C)NC1=NCC(C)S1` (stereo not given), the EC50 was above 200 µM and the IC50 is above 200 µM. `Cc1nc2ccccc2c(=O)n1NC(=O)Cc1ccccc1`: the EC50 was above 200 µM and the IC50 was above 200 µM.

For `CC(C)CCC[C@@H](C)C1CCC2[C@@H]3CC=C4C[C@@H](C(=O)NCCN(C)C)CC[C@]4(C)C3CC[C@@]21C` (stereo not given in full), the outcome was inactive. As to `O=[N+]([O-])/C(C(Cl)=C(Cl)Cl)=C(/Br)SCc1ccccc1`, the EC50 was above 20 µM and the IC50 turned out to be 0.575 µM.

With `Cc1cccc(C)c1NC(=O)CCCC(=O)C1CCC/C1=N\NC(=O)C(=O)NN` (stereo not given), the EC50 was above 64.6 µM and the IC50 was above 64.6 µM. For the compound `O=C(N/N=C/c1cccc(O)c1O)N/N=C/c1cccc(O)c1O`, the EC50 was above 200 µM and the IC50 came to 6.76 µM. For the compound `COc1ccc(C2=C(Cl)c3cc(OC)c(OC)cc3C2=O)cc1OC`, the EC50 was above 200 µM and the IC50 came to 1.45 µM. For the compound `Nc1ccccc1[S][Sn]([c]1ccccc1)([c]1ccccc1)[c]1ccccc1`, the EC50 is above 2 µM and the IC50 amounted to 0.324 µM. Turning to `COc1ccc(Br)c(C(=O)N2CCc3ccccc32)c1N`, the outcome was inactive. On to `CCCCCNP1(NCCCCC)=NP(NCCCCC)(NCCCCC)=NP(NCCCCC)(NCCCCC)=NP(NCCCCC)(NCCCCC)=N1`, for which the EC50 is above 50.1 µM and the IC50 was above 50.1 µM. Regarding `Cc1cc(=O)c(C#N)c2c(C#N)c(N)[nH]n12`, the EC50 is above 200 µM and the IC50 was above 200 µM. For the compound `S=C1N=C(Cl)C2(NN1)c1ccccc1-c1ccccc12`, the EC50 is above 200 µM and the IC50 is above 200 µM.

Regarding `CC(C)(C)OC(=O)NC(Cc1ccc(O)cc1)/C(O)=C(\C#N)c1c(F)c(F)c(F)c(F)c1F` (stereo not given), the EC50 is above 200 µM and the IC50 was 123 µM.

For the compound `Cc1ccccc1NC(=O)/C(C#N)=N\Nc1nc[nH]c1C(N)=O`, the EC50 is above 200 µM and the IC50 was determined as 0.257 µM. Take `N#CC(c1ccccc1)N(CCc1ccccc1)C(=O)c1ccccc1` (stereo not given): the EC50 was above 126 µM and the IC50 is above 126 µM. For `c1cc[c]([Sn]([O]c2cccc3cccnc23)([O]c2cccc3cccnc23)[c]2ccccc2)cc1`, the result was inactive. On to `CC(O)=NC(Cc1ccc2ccccc2c1)C(O)=NC(Cc1ccc(Cl)cc1)C(O)=NC(Cc1c[nH]c2ccccc12)C(O)=NC(CO)C(O)=NC(Cc1ccc(O)cc1)C(O)=NC(CCCN=C(N)N)C(O)=NC(CC(C)C)C(O)=NC(CCCN=C(N)N)C(=O)N1CCCC1C(O)=NC(C)C(=N)O` (stereo not given), for which the EC50 is above 87.1 µM and the IC50 was above 87.1 µM. In the case of `NCC1OC(OC2C(CO)OC(OC3C(O)C(N)CC(N)C3OC3OC(CN)C(O)C(O)C3N)C2O)C(N)C(O)C1O` (stereo not given), the outcome was inactive. Regarding `N.N.N.N.[Co+3].[O-][Cl+3]([O-])([O-])[O-].[OH3+].[OH3+]`, the outcome was inactive. On to `CC1(CCCC2(C)CCNC2=O)OCCO1` (stereo not given), for which the EC50 was above 200 µM and the IC50 was above 200 µM.

For the compound `O=C(Nc1ccc(Br)cc1)c1c(-c2ccccc2)c2ccc(O)cc2oc1=O`, the EC50 is above 34.7 µM and the IC50 was found to be 32.4 µM.

Consider `O=C1c2ccccc2C2(O)c3cc4ccccc4cc3OC12O` (stereo not given), for which the EC50 is above 589 µM and the IC50 was found to be 44.7 µM. For the compound `C/C(=C\CNc1ncnc2nc(Cl)[nH]c12)CO`, the EC50 is above 200 µM and the concentration for half-maximal inhibition (IC50) is above 200 µM.
